Measurements from ChEMBL document CHEMBL4359871, “Novel electrophilic amides amenable by the Ugi reaction perturb thioredoxin system via thioredoxin reductase 1 (TrxR1) inhibition: Identification of DVD-445 as a new lead compound for anticancer therapy” (Eur J Med Chem, 2019).
Active and inactive are the calls of the source. No cut-off for these calls is given here.

Tests used:
[1] = target: T1, Thioredoxin reductase 1, cytoplasmic (Homo sapiens, UniProt Q16881); experiment: Inhibition of TrxR in human SH-SY5Y cells using DTNB as substrate preincubated for 15 mins followed by substrate addition and measured for 20 mins by Ellman's method; assay type: cell-based
T1 sequence (Q16881 whole entry): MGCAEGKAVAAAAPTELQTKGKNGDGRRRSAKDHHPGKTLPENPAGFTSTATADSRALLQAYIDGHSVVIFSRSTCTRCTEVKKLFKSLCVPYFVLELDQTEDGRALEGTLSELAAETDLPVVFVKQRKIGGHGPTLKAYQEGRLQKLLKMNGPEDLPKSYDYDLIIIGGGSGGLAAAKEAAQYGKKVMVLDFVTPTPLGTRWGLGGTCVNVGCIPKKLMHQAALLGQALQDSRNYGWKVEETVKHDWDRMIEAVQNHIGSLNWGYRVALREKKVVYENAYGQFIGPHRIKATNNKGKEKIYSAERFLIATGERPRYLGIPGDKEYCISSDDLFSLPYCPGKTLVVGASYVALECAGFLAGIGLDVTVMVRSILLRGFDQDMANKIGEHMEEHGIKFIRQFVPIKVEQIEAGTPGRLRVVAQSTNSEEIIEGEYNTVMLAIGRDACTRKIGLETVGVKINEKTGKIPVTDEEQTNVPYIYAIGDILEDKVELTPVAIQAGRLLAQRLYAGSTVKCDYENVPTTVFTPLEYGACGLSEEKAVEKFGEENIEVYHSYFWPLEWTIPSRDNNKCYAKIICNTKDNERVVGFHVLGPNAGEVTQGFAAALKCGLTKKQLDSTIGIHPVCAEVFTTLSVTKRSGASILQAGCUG

[2] = tested on: SH-SY5Y; experiment: Induction of apoptosis in human SH-SY5Y cells assessed as early apoptotic cells incubated for 48 hrs by annexin V FITC and propidium iodide staining based flow cytometry (reference value: 0.44 %); assay type: functional
[3] = tested on: SH-SY5Y; experiment: Induction of apoptosis in human SH-SY5Y cells assessed as viable cells incubated for 48 hrs by annexin V FITC and propidium iodide staining based flow cytometry (reference value: 92.44 %); assay type: functional
[4] = tested on: SH-SY5Y; experiment: Induction of ROS generation in human SH-SY5Y cells incubated for 24 hrs by DHE staining based flow cytometry; assay type: functional, cell-based
[5] = tested on: SH-SY5Y; experiment: Cytotoxicity against human SH-SY5Y cells assessed as reduction in cell viability incubated for 72 hrs by MTT assay; assay type: functional, cell-based
[6] = tested on: PBMC; experiment: Cytotoxicity against human PBMC assessed as reduction in cell viability incubated for 72 hrs by MTT assay; assay type: cell-based
[7] = Induction of apoptosis in human HaCaT cells assessed as viable cells incubated for 48 hrs by annexin V FITC and propidium iodide staining based flow cytometry (reference value: 95.78 %); assay type: cell-based; details: read-out: Activity
[8] = tested on: HaCaT; experiment: Induction of RNS generation in human HaCaT cells incubated for 24 hrs by DHR staining based flow cytometry; assay type: cell-based
[9] = target: T2, Thioredoxin reductase 1, cytoplasmic (Rattus norvegicus) (UniProt O89049); experiment: […] inhibition of rat TrxR1 using DTNB as substrate preincubated for 15 mins in presence of NADPH followed by substrate addition and measured for 20 mins by Ellman's method
T2 sequence (whole entry): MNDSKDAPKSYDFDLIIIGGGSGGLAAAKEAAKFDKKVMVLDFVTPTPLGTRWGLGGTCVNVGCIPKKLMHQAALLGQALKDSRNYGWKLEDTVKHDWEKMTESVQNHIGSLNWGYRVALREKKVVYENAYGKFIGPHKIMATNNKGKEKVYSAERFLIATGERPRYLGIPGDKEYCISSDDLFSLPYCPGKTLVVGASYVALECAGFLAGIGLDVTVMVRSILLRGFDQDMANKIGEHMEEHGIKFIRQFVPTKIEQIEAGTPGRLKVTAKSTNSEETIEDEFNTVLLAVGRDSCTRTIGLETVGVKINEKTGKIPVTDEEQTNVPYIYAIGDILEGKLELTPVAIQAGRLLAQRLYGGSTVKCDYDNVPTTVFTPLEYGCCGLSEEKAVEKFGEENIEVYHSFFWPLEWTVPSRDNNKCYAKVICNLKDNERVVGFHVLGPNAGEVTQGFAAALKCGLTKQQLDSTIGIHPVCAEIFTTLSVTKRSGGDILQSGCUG

[10] = tested on: SH-SY5Y; experiment: Induction of apoptosis in human SH-SY5Y cells assessed as late apoptotic cells incubated for 48 hrs by annexin V FITC and propidium iodide staining based flow cytometry (reference value: 1.37 %); assay type: functional
[11] = tested on: HaCaT; experiment: Induction of apoptosis in human HaCaT cells assessed as necrotic cells incubated for 48 hrs by annexin V FITC and propidium iodide staining based flow cytometry (reference value: 2.74 %); assay type: cell-based
[12] = tested on: U-87 MG; experiment: Induction of ROS generation in human U87 cells incubated for 24 hrs by DHE staining based flow cytometry; assay type: functional, cell-based; details: U-87MG ATCC
[13] = tested on: SH-SY5Y; experiment: Induction of RNS generation in human SH-SY5Y cells incubated for 24 hrs by DHR staining based flow cytometry; assay type: functional
[14] = tested on: U-87 MG; experiment: Induction of RNS generation in human U87 cells incubated for 24 hrs by DHR staining based flow cytometry; assay type: functional, cell-based; details: U-87MG ATCC
[15] = target: T1, Thioredoxin reductase 1, cytoplasmic; experiment: Inhibition of TrxR1 (unknown origin) using DTNB as substrate preincubated for 30 mins in presence of insulin followed by substrate addition by colorimetry
[16] = tested on: HaCaT; experiment: Cytotoxicity against human HaCaT assessed as reduction in cell viability incubated for 72 hrs by MTT assay; assay type: cell-based
[17] = tested on: U-87 MG; experiment: Cytotoxicity against human U87 cells assessed as reduction in cell viability incubated for 72 hrs by MTT assay; assay type: functional, cell-based, U-87MG ATCC
[18] = tested on: HaCaT; experiment: Induction of apoptosis in human HaCaT cells assessed as late apoptotic cells incubated for 48 hrs by annexin V FITC and propidium iodide staining based flow cytometry (reference value: 0.46 %); assay type: cell-based
[19] = target: T3, Thioredoxin reductase 1, cytoplasmic (Rattus norvegicus, UniProt O89049); experiment: Inhibition of rat TrxR1 using DTNB as substrate preincubated for 15 mins followed by substrate addition and measured for 20 mins by Ellman's method
T3 sequence (O89049 whole entry): T2 sequence (whole entry)

[20] = tested on: HaCaT; experiment: Induction of apoptosis in human HaCaT cells assessed as early apoptotic cells incubated for 48 hrs by annexin V FITC and propidium iodide staining based flow cytometry (reference value: 0.02 %); assay type: cell-based
[21] = tested on: HaCaT; experiment: Induction of ROS generation in human HaCaT cells incubated for 24 hrs by DHE staining based flow cytometry; assay type: cell-based
[22] = tested on: SH-SY5Y; experiment: Induction of apoptosis in human SH-SY5Y cells assessed as necrotic cells incubated for 48 hrs by annexin V FITC and propidium iodide staining based flow cytometry (reference value: 5.75 %); assay type: functional

Structure (SMILES) | IC50 [1] | Activity [2] | Activity [3] | Activity [4] | IC50 [5] | IC50 [6] | viability at 48 h [7] | Activity [8] | inhibition [9] | Activity [10] | Activity [11] | Activity [12] | Activity [13] | Activity [14] | IC50 [15] | IC50 [16] | IC50 [17] | Activity [18] | IC50 [19] | Activity [20] | other results
Cc1ccc(C(=O)/C=C/C(=O)N(CC(C)C)C(C(=O)NC(C)(C)C)C(C)(C)C)cc1 (configuration not stated) | > 200 µM | – | – | – | – | – | – | – | – | – | – | – | – | – | – | – | – | – | – | – | –
Cc1ccc(C(=O)/C=C/C(=O)N(C2CC2)C(C(=O)NCc2ccccc2)c2ncc(C)cn2)cc1 (configuration not stated) | 31.8 µM | 1.1% | 81.45% | inactive | 4.94 µM | 15.3 µM | 91.7% | Non-Toxic | Active | 2.91% | 7.18% | inactive | inactive | inactive | 6.61 µM | 5.45 µM | 15.2 µM | 1.06% | 4.2 µM | 0.07% | Activity [21]: Non-Toxic; Activity [22]: 14.54%
CCCN(C(=O)/C=C/C(=O)c1ccc(C)cc1)C(C(=O)NC1CCCCC1)c1ccc(C)cc1 (configuration not stated) | 81.6 µM | – | – | – | – | – | – | – | – | – | – | – | – | – | – | – | – | – | – | – | –
CC(C)(C)NC(=O)C(c1ccc(F)cc1)N(C(=O)/C=C/C(=O)c1ccc(F)cc1)C1CC1 (configuration not stated) | 17.4 µM | 0.6% | 86.76% | inactive | 0.56 µM | 5.6 µM | 94% | Non-Toxic | Active | 1.54% | 5.21% | inactive | inactive | inactive | 0.82 µM | 1.06 µM | 0.8 µM | 0.77% | 0.93 µM | 0.07% | Activity [21]: Non-Toxic; Activity [22]: 11.11%
COc1cc(/C=C/C(=O)N2CCC=CC2=O)cc(OC)c1OC [PIPLARTINE] | – | – | – | – | 5.94 µM | – | – | – | – | – | – | – | – | – | – | 3.03 µM | 7.18 µM | – | – | – | –
COc1ccc(C(C(=O)NC(C)(C)C)N(C(=O)/C=C/C(=O)c2ccc(C)cc2)C2CC2)cc1OC (configuration not stated) | 76.6 µM | – | – | – | – | – | – | – | – | – | – | – | – | – | – | – | – | – | – | – | –
Cc1ccc(C(=O)C[C@H]2C(=O)N(C3CCCCC3)[C@H](c3cccnc3)C(=O)N2Cc2ccccc2)cc1 (racemic) | > 200 µM | – | – | – | – | – | – | – | – | – | – | – | – | – | – | – | – | – | – | – | –
COc1ccc(C(C(=O)NC2CCCCC2)N(CC(C)C)C(=O)/C=C/C(=O)c2ccc(C)cc2)cc1 (configuration not stated) | > 200 µM | – | – | – | – | – | – | – | – | – | – | – | – | – | – | – | – | – | – | – | –
COc1cc(C(C(=O)NC(C)(C)C)N(CCC(C)C)C(=O)/C=C/C(=O)c2ccc(F)cc2)cc(OC)c1OC (configuration not stated) | 8.58 µM | 0.07% | 37.57% | inactive | 2.96 µM | 7.29 µM | 65.3% | Non-Toxic | Active | 0.39% | 29.45% | inactive | >=30% | inactive | 2.51 µM | 1.05 µM | 2.92 µM | 5.06% | 1.25 µM | 0.14% | Activity [21]: Non-Toxic; Activity [22]: 61.97%
Cc1ccc(C(=O)/C=C/C(=O)N(C2CC2)C(C(=O)NC2CCCCC2)c2ccc(F)cc2)cc1 (configuration not stated) | 29.3 µM | – | – | – | – | – | – | – | – | – | – | – | – | – | – | – | – | – | – | – | –
COc1ccccc1C(C(=O)NC1CCCCC1)N(C(=O)/C=C/C(=O)c1ccc(C)cc1)C1CCCCC1 (configuration not stated) | 51.2 µM | 0.25% | 57.22% | inactive | 1.77 µM | 1.62 µM | 89.1% | Non-Toxic | Active | 0.92% | 9.65% | inactive | >=30% | inactive | 5.28 µM | 1.56 µM | 1.41 µM | 1.15% | 3.12 µM | 0.07% | Activity [21]: Non-Toxic; Activity [22]: 41.62%
CCCCN(C(=O)/C=C/C(=O)c1ccc(F)cc1)C(C(=O)NCc1ccccc1)C(C)(C)C (configuration not stated) | 30.5 µM | – | – | – | – | – | – | – | – | – | – | – | – | – | – | – | – | – | – | – | –
COc1ccc(C(C(=O)NC(C)(C)C)N(C(=O)/C=C/C(=O)c2ccc(C)cc2)C(C)C)cc1 (configuration not stated) | 16 µM | 0.71% | 71.35% | inactive | 0.9 µM | 2.1 µM | 78.8% | Non-Toxic | Active | 2.14% | 18.16% | inactive | >=30% | inactive | 0.76 µM | 0.83 µM | 0.46 µM | 2.92% | 1.74 µM | 0.22% | Activity [21]: Non-Toxic; Activity [22]: 25.8%
CN(CCOC(=O)/C=C/C(=O)c1ccc(F)cc1)C(C(=O)NC(C)(C)C)c1ccc(F)cc1 (configuration not stated) | 7.26 µM | 2.57% | 75.74% | inactive | 11 µM | 55.7 µM | 93.9% | Non-Toxic | Active | 6.73% | 5.21% | inactive | inactive | inactive | 0.96 µM | 8.3 µM | 9.7 µM | 0.83% | 0.6 µM | 0.03% | Activity [21]: Non-Toxic; Activity [22]: 14.96%
